Experimental data taken from ChEMBL document CHEMBL1129330, “Synthesis and pharmacological characterization of all sixteen stereoisomers of 2-(2'-carboxy-3'-phenylcyclopropyl)glycine. Focus on (2S,1'S,2'S,3'R)-2-(2'-carboxy-3'-phenylcyclopropyl)glycine, a novel and selective group II metabotropic glutamate receptors antagonist” (J Med Chem, 1996).

Experiments:
[1] = biological target: Glutamate receptor ionotropic, AMPA (Rattus norvegicus, UniProt P19490+P19491+P19492+P19493); assay: Binding affinity towards Ionotropic glutamate receptor AMPA; assay type: protein-complex assay
[2] = Inhibitory concentration towards the sodium dependent glutamate transport into synaptosomes.; assay type: functional, subcellular, Brain
Glutamate NMDA receptor = assay: Binding affinity towards Ionotropic glutamate receptor NMDA; assay type: protein-complex assay
[3] = biological target: Glutamate receptor ionotropic, kainate; assay: Binding affinity towards Ionotropic glutamate receptor kainate; assay type: protein-complex assay
[4] = biological target: T1, Metabotropic glutamate receptor 2 (Homo sapiens, UniProt Q14416); assay: Effective concentration forskolin-stimulated cAMP formation in BHK cells expressing mGluR2 receptor; assay type: functional, cell-based
T1 sequence (Q14416 whole entry): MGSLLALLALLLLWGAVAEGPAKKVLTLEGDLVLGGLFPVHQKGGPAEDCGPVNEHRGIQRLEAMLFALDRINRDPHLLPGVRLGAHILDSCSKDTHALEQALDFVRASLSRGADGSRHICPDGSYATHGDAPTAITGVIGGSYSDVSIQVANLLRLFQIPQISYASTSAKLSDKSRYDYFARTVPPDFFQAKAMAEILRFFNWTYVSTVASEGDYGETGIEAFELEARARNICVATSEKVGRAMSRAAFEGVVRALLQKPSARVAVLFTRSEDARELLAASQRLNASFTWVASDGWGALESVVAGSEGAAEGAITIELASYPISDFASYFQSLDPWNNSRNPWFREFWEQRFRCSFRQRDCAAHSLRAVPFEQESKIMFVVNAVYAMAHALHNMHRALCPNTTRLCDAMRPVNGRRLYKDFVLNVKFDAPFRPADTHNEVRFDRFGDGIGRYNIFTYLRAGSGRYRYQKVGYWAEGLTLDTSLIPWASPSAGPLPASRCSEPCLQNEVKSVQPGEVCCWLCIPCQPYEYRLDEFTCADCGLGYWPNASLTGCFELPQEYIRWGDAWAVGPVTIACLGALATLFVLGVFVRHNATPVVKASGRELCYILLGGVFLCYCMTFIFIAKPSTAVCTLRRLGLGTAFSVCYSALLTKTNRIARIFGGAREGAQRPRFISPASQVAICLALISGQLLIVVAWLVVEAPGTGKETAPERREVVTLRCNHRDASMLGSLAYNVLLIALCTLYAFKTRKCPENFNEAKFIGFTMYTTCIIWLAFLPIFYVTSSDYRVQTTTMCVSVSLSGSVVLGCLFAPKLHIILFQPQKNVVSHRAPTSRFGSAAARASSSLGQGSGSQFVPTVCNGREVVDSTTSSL

[5] = Inhibitory concentration towards calcium/chloride-dependent glutamate transport into synaptosomes; assay type: functional, subcellular, Rattus norvegicus, Brain
[6] = biological target: T1, Metabotropic glutamate receptor 2; assay: Concentration required for the half-maximal inhibition of cAMP […] in BHK cells expressing mGluR2; assay type: functional, cell-based
[7] = biological target: T1, Metabotropic glutamate receptor 2; assay: Concentration required for the half-maximal inhibition of cAMP formation in BHK cells expressing mGluR2; assay type: functional, cell-based
[8] = biological target: T1, Metabotropic glutamate receptor 2; assay: Effective concentration of compound against forskolin-stimulated cAMP formation in BHK cells expressing mGluR2 receptor; assay type: functional, cell-based
[9] = biological target: T1, Metabotropic glutamate receptor 2; assay: Concentration required for the half-maximal inhibition of cAMP formation in BHK cells expressing mGluR2.; assay type: functional, cell-based
[10] = biological target: T1, Metabotropic glutamate receptor 2; assay: Antagonistic activity against mGluR2 was determined; assay type: functional
[11] = biological target: Metabotropic glutamate receptor 1 (Homo sapiens, UniProt Q13255); assay: Binding affinity towards mGluR1a was determined
Chain of Metabotropic glutamate receptor 1 (Q13255 whole entry): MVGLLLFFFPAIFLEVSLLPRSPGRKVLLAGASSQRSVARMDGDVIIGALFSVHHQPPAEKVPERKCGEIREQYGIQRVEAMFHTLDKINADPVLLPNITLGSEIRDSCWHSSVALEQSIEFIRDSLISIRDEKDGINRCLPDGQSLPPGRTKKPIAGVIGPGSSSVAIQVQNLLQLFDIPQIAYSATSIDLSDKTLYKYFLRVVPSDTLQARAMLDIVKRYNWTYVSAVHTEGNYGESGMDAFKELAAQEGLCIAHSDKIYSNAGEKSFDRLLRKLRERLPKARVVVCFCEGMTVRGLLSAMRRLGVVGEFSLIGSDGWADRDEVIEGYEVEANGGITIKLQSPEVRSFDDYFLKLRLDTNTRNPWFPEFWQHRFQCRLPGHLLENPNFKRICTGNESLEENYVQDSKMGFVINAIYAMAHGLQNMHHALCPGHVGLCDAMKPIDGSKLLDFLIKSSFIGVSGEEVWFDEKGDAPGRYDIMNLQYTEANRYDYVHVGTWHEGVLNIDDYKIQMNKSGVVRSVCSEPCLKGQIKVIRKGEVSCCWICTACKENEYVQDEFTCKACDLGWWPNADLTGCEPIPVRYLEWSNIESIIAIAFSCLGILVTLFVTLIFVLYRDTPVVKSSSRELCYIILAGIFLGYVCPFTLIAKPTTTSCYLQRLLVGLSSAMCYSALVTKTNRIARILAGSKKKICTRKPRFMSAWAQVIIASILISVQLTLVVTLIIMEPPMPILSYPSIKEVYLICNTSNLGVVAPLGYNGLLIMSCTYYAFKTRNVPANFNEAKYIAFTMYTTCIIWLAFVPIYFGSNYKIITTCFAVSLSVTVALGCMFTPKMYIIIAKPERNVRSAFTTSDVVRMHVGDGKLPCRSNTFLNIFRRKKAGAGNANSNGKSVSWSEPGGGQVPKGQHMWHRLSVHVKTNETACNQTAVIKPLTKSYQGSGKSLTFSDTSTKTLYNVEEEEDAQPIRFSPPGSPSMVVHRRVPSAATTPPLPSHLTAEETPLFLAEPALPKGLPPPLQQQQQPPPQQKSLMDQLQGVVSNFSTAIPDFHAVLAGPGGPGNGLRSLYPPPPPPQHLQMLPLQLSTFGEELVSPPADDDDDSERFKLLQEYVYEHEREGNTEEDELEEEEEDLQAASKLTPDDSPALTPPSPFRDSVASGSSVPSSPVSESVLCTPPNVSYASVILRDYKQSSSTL

| Structure (SMILES) | Ki [1] | IC50 [2] | Ki (Glutamate NMDA receptor) | Ki [3] | EC50 [4] | IC50 [5] | IC50 [6] | IC50 [7] | EC50 [8] | IC50 [9] | IC50 [10] | Ki [11] | EC50 ([4]; bhk) | IC50 ([6]; bhk) |
| --- | --- | --- | --- | --- | --- | --- | --- | --- | --- | --- | --- | --- | --- | --- |
| N[C@H](C(=O)O)[C@H]1[C@@H](C(=O)O)[C@H]1c1ccccc1 | > 220 µM | > 300 µM | > 200 µM | > 190 µM | > 300 µM | 233 µM | > 300 µM | – | – | – | – | – | – | – |
| N[C@H](C(=O)O)[C@H]1[C@H](C(=O)O)[C@@H]1c1ccccc1 | > 220 µM | > 300 µM | 25 µM | > 190 µM | > 300 µM | 85 µM | > 300 µM | – | – | – | – | – | – | – |
| N[C@@H](C(=O)O)[C@@H]1[C@@H](C(=O)O)[C@H]1c1ccccc1 | > 220 µM | > 300 µM | 29 µM | > 190 µM | > 300 µM | 138 µM | > 300 µM | – | – | – | – | – | – | – |
| N[C@@H](C(=O)O)[C@H]1[C@@H](C(=O)O)[C@H]1c1ccccc1 | > 220 µM | > 300 µM | > 200 µM | 117 µM | > 300 µM | 32 µM | > 300 µM | – | – | – | – | – | – | – |
| N[C@@H](C(=O)O)[C@H]1[C@H](C(=O)O)[C@@H]1c1ccccc1 | > 300 µM | > 300 µM | > 200 µM | > 190 µM | > 300 µM | 23 µM | > 300 µM | – | – | – | – | – | – | – |
| CC(N)(C(=O)O)c1ccc(C(=O)O)cc1 (stereo not given) | – | – | – | – | – | – | – | – | – | – | 50 µM | 50 µM | – | – |
| N[C@H](C(=O)O)[C@@H]1[C@@H](C(=O)O)[C@@H]1c1ccccc1 | > 220 µM | > 300 µM | > 200 µM | > 190 µM | – | > 300 µM | 8 µM | – | – | – | – | – | – | – |
| N[C@@H](C(=O)O)[C@@H]1[C@H](C(=O)O)[C@H]1c1ccccc1 (stereo in doubt; 44) | > 220 µM | > 300 µM | > 200 µM | > 190 µM | > 300 µM | > 300 µM | > 300 µM | – | – | – | – | – | – | – |

Now from value to compound:

| Ki [1] | IC50 [2] | Ki (Glutamate NMDA receptor) | Ki [3] | EC50 [4] | IC50 [5] | IC50 [6] | IC50 [7] | EC50 [8] | IC50 [9] | IC50 [10] | Ki [11] | EC50 ([4]; bhk) | IC50 ([6]; bhk) | Structure (SMILES) |
| --- | --- | --- | --- | --- | --- | --- | --- | --- | --- | --- | --- | --- | --- | --- |
| > 220 µM | > 300 µM | > 200 µM | 155 µM | > 300 µM | 270 µM | > 300 µM | – | – | – | – | – | – | – | N[C@H](C(=O)O)[C@@H]1[C@H](C(=O)O)[C@@H]1c1ccccc1 |
| > 220 µM | > 300 µM | 192 µM | 126 µM | > 300 µM | 7 µM | > 300 µM | – | – | – | – | – | – | – | N[C@H](C(=O)O)[C@@H]1[C@@H](C(=O)O)[C@H]1c1ccccc1 |
| 141 µM | > 300 µM | > 200 µM | 144 µM | > 300 µM | 213 µM | > 300 µM | – | – | – | – | – | – | – | N[C@H](C(=O)O)[C@H]1[C@@H](C(=O)O)[C@@H]1c1ccccc1 |
| 124 µM | > 300 µM | 107 µM | 25 µM | > 300 µM | 41 µM | – | > 300 µM | – | – | – | – | – | – | N[C@H](C(=O)O)[C@H]1[C@H](C(=O)O)[C@H]1c1ccccc1 |
| 212 µM | > 300 µM | 193 µM | > 190 µM | – | > 300 µM | – | – | > 300 µM | > 300 µM | – | – | – | – | N[C@@H](C(=O)O)[C@@H]1[C@@H](C(=O)O)[C@@H]1c1ccccc1 |
| 251 µM | > 300 µM | > 200 µM | 122 µM | > 300 µM | 143 µM | > 300 µM | – | – | – | – | – | – | – | N[C@@H](C(=O)O)[C@@H]1[C@H](C(=O)O)[C@@H]1c1ccccc1 |
| 160 µM | > 300 µM | 123 µM | 155 µM | > 300 µM | 64 µM | > 300 µM | – | – | – | – | – | – | – | N[C@@H](C(=O)O)[C@H]1[C@@H](C(=O)O)[C@@H]1c1ccccc1 |
| 125 µM | > 300 µM | 129 µM | 15 µM | 122 µM | > 300 µM | – | – | – | – | – | – | – | – | N[C@@H](C(=O)O)[C@H]1[C@H](C(=O)O)[C@H]1c1ccccc1 |
| 285 µM | – | – | 221 µM | – | 185 µM | – | – | – | – | – | – | > 300 µM | > 300 µM | N[C@@H](C(=O)O)[C@@H]1[C@H](C(=O)O)[C@H]1c1ccccc1 (stereo in doubt; 47) |
